Five molecules from ChEMBL document CHEMBL1157344, “Botcinins E and F and Botcinolide from Botrytis cinerea and structural revision of botcinolides” (2006) can be followed below.

SMILES strings stand for the structures. Values after ≈ are worked out from the molar mass of the structure shown.

For the assay, the system named is Pyricularia grisea. The assay is described as follows: Antifungal activity against Magnaporthe grisea. In kind it is functional.
In general, MIC refers to the lowest concentration found to suppress growth. A lower MIC goes with greater potency. With `CCCCCC[C@H](O)/C=C/C(=O)O[C@@H]1[C@@H](C)[C@@H]2OC(=O)[C@H](C)[C@H](OC(C)=O)[C@@]2(C)O[C@H]1C` [BOTCININ B], the minimal inhibitory concentration (MIC) came out at 12.5 µM (≈ 5.68 µg/mL).

Regarding `CCCC[C@H](O)/C=C/C(=O)O[C@@H]1[C@@H](C)[C@@H]2OC(=O)C(C)=C[C@@]2(C)O[C@H]1C` [BOTCININ D], the minimum inhibitory concentration (MIC) stood at 12.5 µM (≈ 4.58 µg/mL).

`CCCC[C@H](O)/C=C/C(=O)O[C@@H]1[C@@H](C)[C@@H]2OC(=O)[C@H](C)[C@H](O)[C@@]2(C)O[C@H]1C` [3-O-DEACETYLBOTCININ A] returned a minimum inhibitory concentration (MIC) of 100 µM (≈ 38.4 µg/mL).

The molecule `CCCC[C@H](O)/C=C/C(=O)O[C@@H]1[C@@H](C)[C@H](O)[C@@](C)([C@@H](O)[C@@H](C)C(=O)O)O[C@H]1C` [BOTCINIC ACID] showed an MIC of 100 µM (≈ 40.2 µg/mL).

With `CCCC[C@H](O)/C=C/C(=O)O[C@@H]1[C@@H](C)[C@@H]2OC(=O)[C@@H](C)[C@H](O)[C@@]2(C)O[C@H]1C` [BOTCININ F], the minimum inhibitory concentration (MIC) was 100 µM (≈ 38.4 µg/mL).
